Measurements from ChEMBL document CHEMBL1201862, “PubChem BioAssay data set” (2004).
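Where inhibition never reached the appropriate level, the endpoint shown equals the highest concentration tested. Otherwise, values were interpolated linearly from a five-concentration, 48-hour dose response in 96-well plates. GI50 = concentration required for 50% inhibition of growth.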 Activity calls are given as the source filed them. Rule as the data show it: active = GI50 up to about 1.1 µM and inactive = higher.

Key:
Test in all cases: growth of human tumour cells (NCI), 48 h
786-0 = tested on: 786-0
A498 = tested on: A498
A549 = tested on: A549
ACHN = tested on: ACHN
CAKI-1 = tested on: CAKI-1
CCRF-CEM = tested on: CCRF-CEM
COLO 205 = tested on: COLO 205
DLD-1 = tested on: DLD-1
DMS-114 = tested on: DMS-114
DMS-273 = tested on: DMS-273
EKVX = tested on: EKVX
HCC 2998 = tested on: HCC 2998
HCT-116 = tested on: HCT-116
HCT-15 = tested on: HCT-15
HL-60 = tested on: HL-60
HOP-18 = tested on: HOP-18
HOP-62 = tested on: HOP-62
HT-29 = tested on: HT-29
IGROV-1 = tested on: IGROV-1
K562 = tested on: K562
KM-20L2 = tested on: KM-20L2
KM12 = tested on: KM12
LOX IMVI = tested on: LOX IMVI
LXFL 529 = tested on: LXFL 529
M14 = tested on: M14
M19-MEL = tested on: M19-MEL
MOLT-4 = tested on: MOLT-4
Malme-3M = tested on: Malme-3M
NCI-H226 = tested on: NCI-H226
NCI-H23 = tested on: NCI-H23
NCI-H460 = tested on: NCI-H460
NCI-H522 = tested on: NCI-H522
OVCAR-3 = tested on: OVCAR-3
OVCAR-4 = tested on: OVCAR-4
OVCAR-5 = tested on: OVCAR-5
OVCAR-8 = tested on: OVCAR-8
RPMI-8226 = tested on: RPMI-8226
RXF 393 = tested on: RXF 393
SF-268 = tested on: SF-268
SF-295 = tested on: SF-295
SF-539 = tested on: SF-539
SK-MEL-28 = tested on: SK-MEL-28
SK-MEL-2 = tested on: SK-MEL-2
SK-MEL-5 = tested on: SK-MEL-5
SK-OV-3 = tested on: SK-OV-3
SN12C = tested on: SN12C
SNB-19 = tested on: SNB-19
SNB-75 = tested on: SNB-75
SNB-78 = tested on: SNB-78
SW-620 = tested on: SW-620
TK-10 = tested on: TK-10
U-251 = tested on: U-251
UACC-257 = tested on: UACC-257
UACC-62 = tested on: UACC-62
UO-31 = tested on: UO-31
HOP-92 = tested on: HOP-92
SR = tested on: SR

Measured: GI50

COc1cccc2c1[C@H]1OC(=O)NC1CCCCC2 (stereo partly drawn)
> 100 µM: HCT-15
inactive: 786-0 > 100 µM | A498 > 100 µM | A549 > 100 µM | ACHN > 100 µM | CAKI-1 > 100 µM | CCRF-CEM > 100 µM | COLO 205 > 100 µM | DLD-1 > 100 µM | DMS-114 > 100 µM | DMS-273 > 100 µM | EKVX > 100 µM | HCC 2998 > 100 µM | HCT-116 > 100 µM | HL-60 > 100 µM | HOP-18 > 100 µM | HOP-62 > 100 µM | HT-29 > 100 µM | IGROV-1 > 100 µM | K562 > 100 µM | KM-20L2 > 100 µM | KM12 > 100 µM | LOX IMVI > 100 µM | LXFL 529 > 100 µM | M14 > 100 µM | M19-MEL > 100 µM | MOLT-4 > 100 µM | Malme-3M > 100 µM | NCI-H226 > 100 µM | NCI-H23 > 100 µM | NCI-H460 > 100 µM | NCI-H522 > 100 µM | OVCAR-3 > 100 µM | OVCAR-4 > 100 µM | OVCAR-5 > 100 µM | OVCAR-8 > 100 µM | RPMI-8226 > 100 µM | RXF 393 > 100 µM | SF-268 > 100 µM | SF-295 > 100 µM | SF-539 > 100 µM | SK-MEL-28 > 100 µM | SK-MEL-2 > 100 µM | SK-MEL-5 > 100 µM | SK-OV-3 > 100 µM | SN12C > 100 µM | SNB-19 > 100 µM | SNB-75 > 100 µM | SNB-78 > 100 µM | SW-620 > 100 µM | TK-10 > 100 µM | U-251 > 100 µM | UACC-257 > 100 µM | UACC-62 > 100 µM | UO-31 > 100 µM

Cc1cc(O)nc(NNC(C#N)c2ccc([N+](=O)[O-])cc2)n1 (stereo not drawn)
inactive: 786-0 > 100 µM | A549 > 100 µM | ACHN 74.8 µM | CAKI-1 33.4 µM | CCRF-CEM > 100 µM | COLO 205 > 100 µM | DLD-1 > 100 µM | DMS-114 45.6 µM | DMS-273 91.4 µM | HCT-116 80.4 µM | HL-60 63.4 µM | HOP-18 > 100 µM | HOP-62 > 100 µM | HOP-92 > 100 µM | HT-29 > 100 µM | IGROV-1 76.9 µM | K562 > 100 µM | KM-20L2 > 100 µM | KM12 84.9 µM | LOX IMVI > 100 µM | LXFL 529 > 100 µM | M14 > 100 µM | M19-MEL > 100 µM | MOLT-4 > 100 µM | Malme-3M 70.1 µM | NCI-H226 > 100 µM | NCI-H23 > 100 µM | NCI-H460 > 100 µM | NCI-H522 > 100 µM | OVCAR-3 > 100 µM | OVCAR-4 > 100 µM | OVCAR-5 > 100 µM | OVCAR-8 > 100 µM | RPMI-8226 > 100 µM | RXF 393 93.8 µM | SF-268 > 100 µM | SF-295 > 100 µM | SF-539 > 100 µM | SK-MEL-28 > 100 µM | SK-MEL-2 > 100 µM | SK-MEL-5 > 100 µM | SK-OV-3 > 100 µM | SN12C > 100 µM | SNB-75 34.8 µM | SNB-78 42.6 µM | SR 26.3 µM | SW-620 95.3 µM | TK-10 > 100 µM | U-251 > 100 µM | UACC-257 > 100 µM | UACC-62 > 100 µM | UO-31 47.5 µM
> 100 µM: HCT-15
